Assay results from article PMC9140716, “Light-Control over Casein Kinase 1δ Activity with Photopharmacology: A Clear Case for Arylazopyrazole-Based Inhibitors” (International Journal of Molecular Sciences, 2022).
Read-outs that look alike come from different tables or passages of the source.

Columns and labels:
CK1δ [1] = biological target: T1, CK1δ (Homo sapiens, UniProt P48730); set-up: method as in PMID 21954091; conditions: parent inhibitor; read-out: IC50 of LH846 towards CK1δ; cited from earlier work
CK1δ [2] = biological target: T1, CK1δ; experiment: In vitro kinase assay (ATP consumption, Kinase Glo), 'dark' and UV-irradiated 'light' samples; assay type: biochemical; conditions: for degree of CK1δ inhibition reached in dose-response curve: 'light' and/or 'dark' samples; for difference in activity (potency) between 'light' and 'dark' states: irradiated (365 nm) vs thermally adapted sample, 'light' more potent
Experimental: After evaluating the photochemical properties of the three photoswitches DK398, DK518, and DK557 in detail, an in vitro kinase activity assay was performed. In this assay, the inhibitory activity towards CK1δ of both dark (all-trans) and irradiated (cis-enriched) samples was evaluated to construct dose–response curves for both states. During the enzymatic reaction (2 h), samples were either kept in the dark or irradiated with UV light (λmax = 365 nm). UV light irradiation itself was confirmed to have no effect on CK1δ activity (Figure S9). After the enzymatic reaction, ATP consumption was measured to determine enzyme activity. The ATP consumption of the samples containing the photoswitchable inhibitors was compared to the ATP consumption of a DMSO control to assess the degree of enzyme inhibition.
In vitro kinase assay. Stock solutions (2.0 mM) of the photoswitchable LH846 inhibitors were prepared in DMSO and thermally adapted by heating to c.a. 100 °C for 1 min. Dilutions were made in DMSO to reach 21-fold concentrated solutions of the desired concentrations to be tested in the assay. The assays were performed on white, solid-bottom 384-well plates and electronic, hand-held Gilson pipettes were used. The total volume for the reaction was 10.5 µL. All solutions were applied to the well plate in a dark room to prevent ambient-light-induced photo-isomerisation. Firstly, a solution of CK1δ and substrate peptide RKKKAEpSVASLTSQCSYSS (Anaspec Fermont, CA, USA, custom made) in a kinase assay buffer was aliquoted into the bottom of the wells (9 µL). Next, the 21-fold concentrated solutions of the compound (0.5 μL, final 4.8% DMSO) was pipetted into the bottom of the wells. Lastly, a solution of ATP in water (50 µM, 1 μL) was pipetted into the upper corners of each well (final concentration 4.8 µM). Final concentrations of CK1δ and the substrate peptide were 2 ng/µL and 50 µM, respectively. The enzymatic reaction was started by spinning down the plate (1800× g, 2 min). By employing this method, all reactions were started at the same time, minimising variance between different samples. During the assay, ‘light’ samples were irradiated with UV light (λ = 365 nm, UV lamp Spectroline, ENB-280/FE, 1 × 8 Watt) for the full duration of the assay (2 h). The wells of ‘dark’ samples were carefully covered with an aluminium sticker. After the incubation period (2 h at 30 °C), 10 μL Kinase Glo® (Promega, Madison, WI, USA) was applied into the wells and the luminescent signal was recorded by a plate reader (BioTek Synergy H1). All measurements were carried out in triplicate. Enzyme activity was determined by comparing the ATP consumption of the samples containing the LH846-analogues to that of a DMSO control, set as 100% enzyme activity.

[3] = Reversible switching cycles in kinase assay buffer containing DTT ((photo)chemical stability); assay type: physicochemical; conditions: kinase assay buffer with 0.5 mM DTT, 365 nm / 445 nm irradiation
Experimental: (§1) Lastly, the chemical stability of the photoswitches was evaluated in the kinase assay buffer. To avoid the oxidation of the kinase substrate peptide, the buffer contains dithiothreitol (DTT) as a reducing agent. Therefore, we presumed that performing multiple switching cycles in this buffer would allow us to gain insight into both the photochemical- and chemical stability of the three photoswitches. […] We hypothesise that the instability of DK398 in the assay buffer was caused due to either poor solubility or interactions with buffer components, such as the BSA protein.
Photochemical evaluation. UV-Vis absorption spectra were recorded on an Agilent 8453 UV-Visible spectrophotometer equipped with an irradiation set-up containing a 365 and 445 nm LED. Stock solutions of DK398, DK518, and DK557 were prepared in DMSO (2.0 mM) and were diluted 100-fold in kinase assay buffer (40 mM Tris-HCl, 10 mM MgCl2, 0.5 mM DTT, 0.1 mg/mL BSA, pH 7.4, final 1% DMSO) or DMSO for spectroscopic characterisation. Reversible switching cycles were performed in a kinase assay buffer to evaluate the (photo)chemical stability. All three compounds were irradiated using UV light (λmax = 365 nm) to perform trans-to-cis isomerisation and blue light (λmax = 445 nm) for the back-reaction. The irradiation time was adjusted to the compound until the corresponding PSS was achieved.
Figure 2 (a) Structures and irradiation-dependent interconversion of the trans and cis isomers of DK398, DK518, and DK557; (b) UV-Vis absorption spectra of DK398, DK518, and DK557 in kinase assay buffer (10–20 µM, 4.8% DMSO) in the thermally adapted (all trans) and irradiated forms; (c) isomer distribution in the photostationary state (pie charts). The pink region represents the percentage of cis-isomer in the PSD as determined by ^1H-NMR (DMSO-d6). […]

[4] = Reductive stability (DTT), UPLC-MS after incubation in buffer; assay type: physicochemical; conditions: 10 µM, 0.5 mM DTT, 10 mM MgCl2, pH 7.4, 2 h at 30 °C
Experimental: as §1
Reductive stability (DTT)
Figure S8. UV-traces (λ = 312 nm) of UPLC-MS measurements after incubation of DK518, DK398 and
DK557 in buffer (10 µM, 0.5 mM DTT, 10 mM MgCl2, pH 7.4) for 2h at 30 °C. Traces show the presence of […]

[5] = 'dark' (all-trans, thermally adapted) samples, 2 h at 30 °C, 4.8 µM ATP, read-out: 50 % inhibition: dark (absolute IC50)
[6] = 'light' (cis-enriched) samples irradiated with UV light 365 nm for the full 2 h, 30 °C, 4.8 µM ATP, read-out: 50 % inhibition: light (absolute IC50)

T1 sequence (P48730 whole entry): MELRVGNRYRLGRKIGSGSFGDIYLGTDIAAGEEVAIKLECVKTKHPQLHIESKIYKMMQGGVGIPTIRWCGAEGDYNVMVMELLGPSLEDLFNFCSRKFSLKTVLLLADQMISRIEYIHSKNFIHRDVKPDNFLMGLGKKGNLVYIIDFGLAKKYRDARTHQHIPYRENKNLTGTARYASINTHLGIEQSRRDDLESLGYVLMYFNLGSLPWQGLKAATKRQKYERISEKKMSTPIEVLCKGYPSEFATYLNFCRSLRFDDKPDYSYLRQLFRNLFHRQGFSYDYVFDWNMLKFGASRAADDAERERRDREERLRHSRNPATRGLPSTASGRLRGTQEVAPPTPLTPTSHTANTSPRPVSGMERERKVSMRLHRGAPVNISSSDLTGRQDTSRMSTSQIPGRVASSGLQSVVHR

Compound | IC50 (CK1δ [1]) | IC50 (CK1δ [2]; [5]) | IC50 (CK1δ [2]; [6]) | degree of CK1δ inhibition reached in dose-response curve (CK1δ [2]) | difference in activity (potency) between 'light' and 'dark' states (CK1δ [2]) | stability over multiple switching cycles [3] | stability against reduction by DTT [4] | IC50 (CK1δ [2]; both 'light' and 'dark' samples, read-out: IC50 values towards CK1δ)
Cc1cc2sc(NC(=O)Cc3ccccc3)nc2cc1Cl [LH846] | 290 nM |  |  |  |  |  |  | 
Cc1cc2sc(NC(=O)Cn3nc(C)c(/N=N/c4ccccc4)c3C)nc2cc1Cl [DK557] |  | 11600 nM | 1200 nM | complete enzyme inhibition upon irradiation | ~10 fold | excellent stability | No reduction products (hydrazine or aniline) were observed | 
Cc1cc2sc(NC(=O)Cc3ccc(/N=N/c4ccccc4)cc3)nc2cc1Cl [DK398] |  | > 10000 nM | ~1000 nM | incomplete inhibition | ~10 fold | poor stability | No reduction products (hydrazine or aniline) were observed | 
Cc1cc2sc(NC(=O)Cc3cccc(/N=N/c4ccccc4)c3)nc2cc1Cl [DK518] |  | 340 nM | 350 nM | achieved complete enzyme inhibition | completely abolished the difference in activity | excellent stability | No reduction products (hydrazine or aniline) were observed | ~350 nM
